Experimental data from publication PMC11062922 (Nature Chemical Biology, 2023).
Each block holds one compound with its values, some of them ahead of it.

Legend:
PRKCQ = molecular target: T1, PRKCQ (Homo sapiens, UniProt Q04759); experiment: Kinobeads full dose-response competition binding: PRKCQ; conditions: Gene Name PRKCQ
T1 construct: to maximize the representation of endogenous proteins; endogenous in cells

AURKB = molecular target: T2, AURKB (Homo sapiens, UniProt Q96GD4); experiment: Kinobeads two-dose competition binding: AURKB; conditions: read-out: Lestaurtinib Drugmatrix value, Gene Name AURKB
T2 construct: endogenous in cells

PIP4K2C = molecular target: T3, PIP4K2C (Homo sapiens, UniProt Q8TBX8); experiment: Kinobeads competition binding, Lestaurtinib control replicates: PIP4K2C; conditions: read-out: Lestaurtinib Drugmatrix value; Gene Name PIP4K2C; one column per experiment number and replicate (R1-R3)
T3 construct: a mixture of lysates from five cancer cell lines; endogenous in cells
T3 sequence (Q8TBX8 1-421): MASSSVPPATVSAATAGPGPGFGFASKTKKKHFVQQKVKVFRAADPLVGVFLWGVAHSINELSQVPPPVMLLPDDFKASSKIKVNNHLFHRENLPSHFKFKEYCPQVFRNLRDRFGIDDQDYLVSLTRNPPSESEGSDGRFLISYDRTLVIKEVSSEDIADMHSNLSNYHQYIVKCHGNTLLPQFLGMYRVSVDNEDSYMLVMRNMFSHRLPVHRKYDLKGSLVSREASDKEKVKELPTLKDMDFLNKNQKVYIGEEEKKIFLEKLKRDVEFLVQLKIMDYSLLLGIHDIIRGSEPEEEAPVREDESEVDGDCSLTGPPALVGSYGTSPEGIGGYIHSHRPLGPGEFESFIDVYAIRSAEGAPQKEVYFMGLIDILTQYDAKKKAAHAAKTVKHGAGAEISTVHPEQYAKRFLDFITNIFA

BMPR1B = molecular target: T4, BMPR1B (Homo sapiens, UniProt O00238); experiment: Kinobeads two-dose competition binding: BMPR1B; conditions: read-out: Lestaurtinib Drugmatrix value, Gene Name BMPR1B
T4 construct: endogenous in cells

GSK3A = molecular target: T5, GSK3A (Homo sapiens, UniProt P49840); experiment: Kinobeads two-dose competition binding: GSK3A; conditions: read-out: Lestaurtinib Drugmatrix value, Gene Name GSK3A
T5 construct: endogenous in cells

PRKAR2A = molecular target: T6, PRKAR2A (Homo sapiens, UniProt P13861); experiment: Kinobeads competition binding, Lestaurtinib control replicates: PRKAR2A; conditions: read-out: Lestaurtinib Drugmatrix value; Gene Name PRKAR2A; one column per experiment number and replicate (R1-R3)
T6 construct: to maximize the representation of endogenous proteins; endogenous in cells

HCK = molecular target: T7, HCK (Homo sapiens, UniProt P08631); experiment: Kinobeads two-dose competition binding: HCK; conditions: read-out: Lestaurtinib Drugmatrix value, Gene Name HCK; target HCK; each column = one Lestaurtinib control replicate (batch_R1-R3)
T7 construct: endogenous in cells

TGFBR2 = molecular target: T8, TGFBR2 (Homo sapiens, UniProt P37173); experiment: Kinobeads full dose-response competition binding: TGFBR2; conditions: Gene Name TGFBR2
T8 construct: endogenous in cells

[1] = system: IL-10 secretion in primary bone marrow-derived dendritic cells (BMDCs); experiment: IL-10 cytokine secretion assay (ELISA) in Zymosan-stimulated primary BMDCs; type: cell-based, mouse; conditions: murine BMDCs, inhibitor 30 min before Zymosan stimulation
Method: A subsequent full dose–response experiment confirmed potent and selective binding to SYK ( Kdapp = 58 nM, […] = 0.60; Extended Data Fig. 5a,b). […] One of the effects of Zymosan is that it activates Dectin-1 signaling, in turn activating SYK and leading to increased IL-10 cytokine production (Fig. 3c)[34]. Treatment of cells with the respective SYK inhibitors before Zymosan stimulation indeed led to decreased levels of IL-10 in a dose-dependent fashion (Fig. 3d). […] In line with the cytokine readout, we observed a dose depended reduction of pTyr525/526 indicating SYK inhibition in live cells (Fig. 3e and Extended Data Fig. 5c).
Primary BMDCs were obtained from 9-week-old C57BL/6 mice that were maintained under standard specific pathogen-free conditions. BMDCs were differentiated for 7 days in Roswell Park Memorial Institute medium (Gibco) and granulocyte-macrophage colony-stimulating factor. On day seven, BMDCs were seeded in 96-well plates at 10^5 cells per well in 100 µl of culture medium followed by incubation for 4 h at 37 °C. Subsequently, cells were incubated with SYK inhibitors for 30 min followed by stimulation with Zymosan (final concentration of 50 µg ml^−1; Invivogen) and dispersed in culture medium for 24 h. […] For cytokine secretion quantification, cell culture medium was collected and concentrations of IL-10 in the supernatant were determined using mouse enzyme-linked immunosorbent assay kits (IL-10: Invitrogen) according to the manufacturer’s protocol. Experiments were performed in biological triplicates.

[2] = EC50 with Correction, doses in nM, read-out: apparent Kd
[3] = eight-dose curve fit, doses in nM

T8 sequence (P37173 23-567): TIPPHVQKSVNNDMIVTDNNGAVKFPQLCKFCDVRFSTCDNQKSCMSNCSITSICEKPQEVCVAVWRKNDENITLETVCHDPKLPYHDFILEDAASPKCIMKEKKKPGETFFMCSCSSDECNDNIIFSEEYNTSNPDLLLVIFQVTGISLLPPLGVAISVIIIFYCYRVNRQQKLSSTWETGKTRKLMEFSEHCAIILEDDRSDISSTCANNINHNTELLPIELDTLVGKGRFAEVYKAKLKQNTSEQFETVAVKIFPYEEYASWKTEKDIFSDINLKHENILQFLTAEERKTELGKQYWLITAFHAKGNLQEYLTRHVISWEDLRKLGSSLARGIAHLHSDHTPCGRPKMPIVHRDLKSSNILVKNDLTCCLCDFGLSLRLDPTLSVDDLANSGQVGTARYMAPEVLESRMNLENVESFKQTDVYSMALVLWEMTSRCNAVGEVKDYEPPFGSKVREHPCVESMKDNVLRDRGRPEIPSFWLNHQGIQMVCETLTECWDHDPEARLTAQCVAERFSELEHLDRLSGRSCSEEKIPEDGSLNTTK
T1 sequence (Q04759 whole entry): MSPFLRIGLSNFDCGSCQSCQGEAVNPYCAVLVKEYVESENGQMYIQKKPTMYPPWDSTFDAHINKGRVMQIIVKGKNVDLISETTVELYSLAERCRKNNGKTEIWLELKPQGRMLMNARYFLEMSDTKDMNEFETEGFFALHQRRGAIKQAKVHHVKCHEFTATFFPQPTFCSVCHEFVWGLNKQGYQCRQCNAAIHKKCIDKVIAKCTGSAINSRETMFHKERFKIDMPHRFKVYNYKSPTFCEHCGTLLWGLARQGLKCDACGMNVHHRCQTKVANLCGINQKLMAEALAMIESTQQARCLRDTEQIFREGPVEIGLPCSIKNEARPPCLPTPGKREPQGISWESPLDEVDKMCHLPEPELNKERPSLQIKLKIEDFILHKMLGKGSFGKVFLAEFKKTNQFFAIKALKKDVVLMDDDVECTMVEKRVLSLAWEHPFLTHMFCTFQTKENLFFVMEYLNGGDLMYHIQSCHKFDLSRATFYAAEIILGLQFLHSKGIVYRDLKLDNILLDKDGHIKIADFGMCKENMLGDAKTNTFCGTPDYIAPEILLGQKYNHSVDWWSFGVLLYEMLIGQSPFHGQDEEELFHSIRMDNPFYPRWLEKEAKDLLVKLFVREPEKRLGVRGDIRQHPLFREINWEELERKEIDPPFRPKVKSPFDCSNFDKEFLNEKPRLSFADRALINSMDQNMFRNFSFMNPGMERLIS
T5 sequence (P49840 whole entry): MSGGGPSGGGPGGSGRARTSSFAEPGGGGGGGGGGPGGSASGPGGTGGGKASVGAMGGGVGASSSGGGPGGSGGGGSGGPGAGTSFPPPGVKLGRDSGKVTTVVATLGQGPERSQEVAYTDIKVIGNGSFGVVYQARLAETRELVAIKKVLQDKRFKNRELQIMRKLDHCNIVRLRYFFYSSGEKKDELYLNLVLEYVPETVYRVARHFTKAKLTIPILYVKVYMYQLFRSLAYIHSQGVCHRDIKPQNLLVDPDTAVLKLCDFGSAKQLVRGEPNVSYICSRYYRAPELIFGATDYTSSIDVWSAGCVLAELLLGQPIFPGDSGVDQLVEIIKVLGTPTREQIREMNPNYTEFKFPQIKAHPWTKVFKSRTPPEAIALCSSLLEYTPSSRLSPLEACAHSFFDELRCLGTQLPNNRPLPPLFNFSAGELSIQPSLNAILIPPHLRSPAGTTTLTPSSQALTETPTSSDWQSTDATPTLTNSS
T2 sequence (Q96GD4 whole entry): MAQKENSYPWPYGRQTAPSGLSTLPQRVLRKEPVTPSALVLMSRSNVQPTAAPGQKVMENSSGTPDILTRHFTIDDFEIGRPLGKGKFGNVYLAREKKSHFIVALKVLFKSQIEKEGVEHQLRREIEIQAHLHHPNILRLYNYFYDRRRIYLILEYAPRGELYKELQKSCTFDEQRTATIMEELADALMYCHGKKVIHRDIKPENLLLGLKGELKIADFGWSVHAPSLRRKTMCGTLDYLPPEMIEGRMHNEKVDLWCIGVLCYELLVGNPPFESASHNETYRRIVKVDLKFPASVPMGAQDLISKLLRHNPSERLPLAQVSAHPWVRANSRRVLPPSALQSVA
T4 sequence (O00238 14-502): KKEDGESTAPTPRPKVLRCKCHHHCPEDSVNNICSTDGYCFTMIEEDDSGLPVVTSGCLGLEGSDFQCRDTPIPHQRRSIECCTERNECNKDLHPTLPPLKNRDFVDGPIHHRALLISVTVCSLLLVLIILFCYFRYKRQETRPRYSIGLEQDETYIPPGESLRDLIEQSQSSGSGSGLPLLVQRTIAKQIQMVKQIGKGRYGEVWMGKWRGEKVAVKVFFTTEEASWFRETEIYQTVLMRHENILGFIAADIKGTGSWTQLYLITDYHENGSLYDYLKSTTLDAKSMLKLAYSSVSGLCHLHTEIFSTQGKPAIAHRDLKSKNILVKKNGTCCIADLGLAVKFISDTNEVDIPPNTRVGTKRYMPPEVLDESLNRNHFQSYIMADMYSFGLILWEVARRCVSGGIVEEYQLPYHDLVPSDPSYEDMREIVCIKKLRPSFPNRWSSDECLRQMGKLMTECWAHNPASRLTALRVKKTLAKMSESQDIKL
T7 sequence (P08631 whole entry): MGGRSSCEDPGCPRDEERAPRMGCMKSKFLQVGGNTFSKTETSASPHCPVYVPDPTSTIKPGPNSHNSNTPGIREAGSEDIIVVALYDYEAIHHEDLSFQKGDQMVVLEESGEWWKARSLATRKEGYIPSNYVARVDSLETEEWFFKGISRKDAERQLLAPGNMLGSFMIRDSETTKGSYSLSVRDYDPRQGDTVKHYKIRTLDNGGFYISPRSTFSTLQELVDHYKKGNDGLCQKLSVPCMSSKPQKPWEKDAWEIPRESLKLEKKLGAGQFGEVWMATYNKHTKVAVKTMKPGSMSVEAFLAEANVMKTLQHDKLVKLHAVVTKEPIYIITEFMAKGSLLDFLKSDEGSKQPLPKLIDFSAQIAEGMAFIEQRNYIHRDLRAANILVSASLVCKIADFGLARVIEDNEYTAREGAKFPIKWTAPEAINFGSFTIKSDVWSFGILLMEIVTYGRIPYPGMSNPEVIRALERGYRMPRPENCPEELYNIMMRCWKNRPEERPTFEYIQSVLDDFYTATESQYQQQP

Relative Intensity 0.3nM (PRKCQ; 0.3nM compound, DMSO = 1): 0.9348
Relative Intensity 1nM (PRKCQ; 1nM compound, DMSO = 1): 1.037
Relative Intensity 3nM (PRKCQ; 3nM compound, DMSO = 1): 0.9215
Relative Intensity 10nM (PRKCQ; 10nM compound, DMSO = 1): 0.8429
Relative Intensity 30nM (PRKCQ; 30nM compound, DMSO = 1): 0.5346
Relative Intensity 100nM (PRKCQ; 100nM compound, DMSO = 1): 0.4204
Relative Intensity 300nM (PRKCQ; 300nM compound, DMSO = 1): 0
Relative Intensity 1000nM (PRKCQ; 1000nM compound, DMSO = 1): 0
Kd (PRKCQ; [2]): 58.7 nM
EC50 (PRKCQ; [3]): 58.7 nM
SMILES: CCn1c(-c2nonc2N)nc2c(C#CC(C)(C)O)nc(OCCN)cc21 [GSK902056A]

SMILES: C[C@]12O[C@H](C[C@]1(O)CO)n1c3ccccc3c3c4c(c5c6ccccc6n2c5c31)CNC4=O [Lestaurtinib]
potency estimated from few doses (AURKB): 146 nM
potency estimated from few doses (PIP4K2C): 86.5 nM
potency estimated from few doses (BMPR1B): 737 nM
potency estimated from few doses (GSK3A): 175 nM
potency estimated from few doses (PRKAR2A): 979 nM
potency estimated from few doses (HCK): 587 nM

SMILES: NCc1ccc(-c2nc(-c3ccncc3)c(-c3ccc(Cl)c(O)c3)[nH]2)cc1 [SB-476429-A]
Relative Intensity 0.3nM (TGFBR2; 0.3nM compound, DMSO = 1): 0.9776
Relative Intensity 1nM (TGFBR2; 1nM compound, DMSO = 1): 1.003
Relative Intensity 3nM (TGFBR2; 3nM compound, DMSO = 1): 1.034
Relative Intensity 10nM (TGFBR2; 10nM compound, DMSO = 1): 1.093
Relative Intensity 30nM (TGFBR2; 30nM compound, DMSO = 1): 0.9102
Relative Intensity 100nM (TGFBR2; 100nM compound, DMSO = 1): 0.8621
Relative Intensity 300nM (TGFBR2; 300nM compound, DMSO = 1): 0.7152
Relative Intensity 1000nM (TGFBR2; 1000nM compound, DMSO = 1): 0.41
Kd (TGFBR2; [2]): 767 nM
EC50 (TGFBR2; [3]): 871 nM

SMILES: Cn1cc(-c2nc(N[C@@H]3CCCC[C@@H]3N)c(F)c3c2C(=O)NC3)cn1 [TAK659]
IL-10 levels [1]: dose-dependent reduction
